From publication PMC11778240, “Synthesis and preclinical evaluation of tigilanol tiglate analogs as latency-reversing agents for the eradication of HIV” (Science Advances, 2025)
Read-outs that look alike come from different tables or passages of the source.

Legend:
PKC-δ = biological target: T1, PKC-δ (Homo sapiens, UniProt Q05655); assay: Cell-free PKC competition binding assay against 3H-PDBu
T1 construct: purchased Invitrogen (Sinobiological for the SUW402 experiment)
Source text: (§1) With a diverse library of compounds bearing unique functionalities on the A-, B-, and C-rings (Fig. 6), we began to explore how these modifications affect PKC binding (Fig. 7A), NF-κB activation (Fig. 7B), cell permeation and PKC translocation (Fig. 7, C and D), and latency reversal in J-Lat cells (Fig. 8). […] We conducted this assay with phosphatidyl serine vesicles in solution that mimic the cellular membrane and play a critical role in the binding of small molecules to the PKC C1 domain (Fig. 7A) ([64]).
(§2) Cell-free PKC Binding Assay
The protein kinase C (PKC) affinity of EBC-46 and EBC-46 analogs was determined via competition with 3H-phorbol-12,13-dibutyrate (3H-PDBu) as described below. This procedure entails a glass-fiber filtration method to determine bound radioligand. The method of determining the radioligand Kd is also described.
(§3) Tris HCl (Fisher, ≥ 99%, stored at room temperature)
(§4) Phosphatidylserine (Avanti Polar Lipids, porcine, 25 mg/mL CHCl3 solution, stored at - […]
(§5) Bovine serum albumin (Sigma -Aldrich, ≥ 98%, globulin free, protease free, stored at 4 […]
Human PKC-β-I-GST fusion protein (Invitrogen, aliquoted and stored at -78 °C) Human PKC-δ-GST fusion protein (Invitrogen, aliquoted and stored at -78 °C) Glass-fiber filters (Whatman GF/B)
Preparation of 3H -PDBu solution : […]
(§6) a final concentration of 500 nM.
(§7) Preparation of phosphatidylserine (PS) vesicles :
(§8) For every 96 samples, 3.5 mg phosphatidylserine (140 μL) (25 mg/mL CHCl3 solution) was concentrated by removing chloroform under reduced pressure. The phosphatidylserine residue was resuspended in freshly prepared PKC binding assay buffer (3.5 mL), capped, and then thoroughly mixed by alternating between sonicating and vortexing, in 10 second intervals for 1 minute or until a cloudy white mixture (Branson Sonifier 250, power = 2, 50% duty cycle). The resulting cloudy white mixture (1 mg/mL) was stored on ic e until use.
(§9) Preparation of the "master mix" Solution :
(§10) Constituent Stock concentration (final concentration/amount in “master mix”):
(§11) PS vesicles (0.103 mg/mL)
(§12) Deionized H2O - Final vol of 30 mL
(§13) Preparation of PKC binding assay buffer:
(§14) For every 96 samples, to a 50 mL polypropylene tube was added Tris -HCl (pH 7.4, 1 M, 1.5 mL), KCl (1 M, 3 mL), CaCl2 (0.1 M, 35 μL – conventional isoforms only), and bovine serum albumin (60 mg). This mixture was diluted to 30 mL with deionized H2O and mixed gently. The buffer was […]
(§15) Preparation of PKC isoform solution:
(§16) For every 96 samples, PKC isoform solution was prepared by dissolving a 4 μg aliquot of the indicated recombinant human PKC isoform into 26.5 mL of PKC binding assay buffer. The diluted PKC was stored on ice for immediate use.
(§17) Preparation of PKC “master mix” solution:
(§18) To the PKC-isoform solution was added 1 mg/mL PS vesicles solution (3.30 mL), and 500 nM […]
(§19) The resulting “master mix” solution was vortexed and stored on […]
(§20) Preparation of analog compound dilutions:
(§21) Compound dilutions were prepared with filtered DMSO by serially diluting from a chosen "high" concentration. For the saturation binding experiment (radioligand Kd determination), the maximum radioligand concentration used was 4.0 nM with 2-fold dilutions between data points […]
isoforms ranges from 0.3 – 0.8 nM. […]
(§22) the middle of the binding curve.
For the competition binding experiment (analog Ki determination), 7 or 14 concentrations were used to define the inhibition curve, and compounds dilutions changed by factors of 2 or √2 between data points. The concentrations were chosen such that the in-assay concentration for the data points in the middle of the binding curve were approximately equal to the IC50 of the compound (if the IC50 is unknown, an exploratory binding assay is recommended prior to Ki determination). For assays with one compound per sheet, the √2-fold dilutions were prepared for the concentrations in the middle of the curve (e.g., for SUW400, the analog dilutions used were 15000 nM, 7500 nM, […]
PKC binding assay protocol (Saturation -binding experiment and Competition -binding experiment) […]

PKC-β-I = biological target: T2, PKC-β-I (Homo sapiens, UniProt P05771); assay: as above; settings: for PKC-β selectivity: Fig. 7A, PKC-β over PKC-δ; for PKC binding affinity and selectivity in words / decrease in PKC binding affinity / potency compared to EBC-46: PKC-β and PKC-δ; for logKi (best-fit value), PKC-β-I: log of Ki in nM
T2 construct: purchased Invitrogen
T2 sequence (P05771 whole entry): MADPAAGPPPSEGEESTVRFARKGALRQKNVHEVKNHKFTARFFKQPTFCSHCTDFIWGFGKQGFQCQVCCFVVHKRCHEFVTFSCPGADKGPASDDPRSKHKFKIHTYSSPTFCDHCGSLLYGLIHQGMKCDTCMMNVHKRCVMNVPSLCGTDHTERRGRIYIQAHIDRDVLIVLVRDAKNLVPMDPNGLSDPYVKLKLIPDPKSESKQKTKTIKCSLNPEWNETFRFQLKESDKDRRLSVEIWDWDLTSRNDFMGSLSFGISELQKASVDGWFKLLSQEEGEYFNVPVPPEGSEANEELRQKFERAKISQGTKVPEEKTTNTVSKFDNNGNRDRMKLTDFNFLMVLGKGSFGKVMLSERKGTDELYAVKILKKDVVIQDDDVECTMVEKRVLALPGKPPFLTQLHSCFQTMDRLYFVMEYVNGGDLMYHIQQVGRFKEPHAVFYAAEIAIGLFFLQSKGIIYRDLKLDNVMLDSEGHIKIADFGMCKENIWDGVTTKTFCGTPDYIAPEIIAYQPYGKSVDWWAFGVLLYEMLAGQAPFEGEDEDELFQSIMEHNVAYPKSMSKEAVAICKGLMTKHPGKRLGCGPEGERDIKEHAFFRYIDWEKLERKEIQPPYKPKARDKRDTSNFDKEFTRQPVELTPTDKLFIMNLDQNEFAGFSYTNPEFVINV
Source text: as §1, §2
The protein kinase C (PKC) affinity of EBC-46 and EBC-46 analogs was determined via […]
entails a glass-fiber filtration method to determine bound radioligand. The method of determining the radioligand Kd is also described.
as §3, §4, §5
Human PKC-β-I-GST fusion protein (Invitrogen, aliquoted and stored at -78 °C) Human PKC-δ-GST fusion protein (Invitrogen, aliquoted and stored at -78 °C) Glass-fiber filters (Whatman GF/B) […]
as §6, §7, §8, §9, §10, §11, §12, §13, §14, §15, §16, §17, §18, §19, §20, §21, §22
For the competition binding experiment (analog Ki determination), 7 or 14 concentrations were used to define the inhibition curve, and compounds dilutions changed by factors of 2 or √2 between data points. The concentrations were chosen such that the in-assay concentration for the data points in the middle of the binding curve were approximately equal to the IC50 of the compound (if the IC50 is unknown, an exploratory binding assay is recommended prior to Ki determination). For assays with one compound per sheet, the √2-fold dilutions were prepared for the concentrations in […]
PKC binding assay protocol (Saturation -binding experiment and Competition -binding experiment)
1) Glass-fiber filters were prepared by soaking them in a solution of aqueous polyethyleneimine

[1] = competition against radiolabeled PDBu, Fig. 7A and text, read-out: Ki PKC-δ
[2] = HotNM 2.5, HotKdNM 0.37, supplement fit, read-out: Ki (best-fit value), PKC-β-I
[3] = competition against radiolabeled PDBu, Fig. 7A and text, read-out: Ki PKC-β
[4] = HotNM 2.5, HotKdNM 0.62, supplement fit, read-out: Ki (best-fit value), PKC-δ
[5] = log of Ki in nM, HotNM 2.5, HotKdNM 0.62

T1 sequence (Q05655 whole entry): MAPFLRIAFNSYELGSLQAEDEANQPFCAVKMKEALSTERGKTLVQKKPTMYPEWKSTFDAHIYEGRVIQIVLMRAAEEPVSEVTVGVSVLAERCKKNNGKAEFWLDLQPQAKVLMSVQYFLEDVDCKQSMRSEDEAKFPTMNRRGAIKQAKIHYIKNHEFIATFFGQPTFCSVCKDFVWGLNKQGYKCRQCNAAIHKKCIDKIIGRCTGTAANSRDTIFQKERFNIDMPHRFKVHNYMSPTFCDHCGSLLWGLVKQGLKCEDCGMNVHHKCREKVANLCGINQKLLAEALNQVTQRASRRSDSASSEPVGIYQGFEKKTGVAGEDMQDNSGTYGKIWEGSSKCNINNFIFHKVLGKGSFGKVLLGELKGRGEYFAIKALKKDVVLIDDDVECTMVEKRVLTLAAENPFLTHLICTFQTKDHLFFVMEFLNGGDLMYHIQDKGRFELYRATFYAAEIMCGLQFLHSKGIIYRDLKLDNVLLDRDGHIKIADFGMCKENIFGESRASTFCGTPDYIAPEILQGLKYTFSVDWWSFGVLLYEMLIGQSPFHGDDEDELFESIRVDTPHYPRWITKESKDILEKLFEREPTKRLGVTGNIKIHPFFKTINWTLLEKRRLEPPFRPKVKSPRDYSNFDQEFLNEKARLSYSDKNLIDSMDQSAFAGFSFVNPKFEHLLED

SMILES | logKi (best-fit value), PKC-δ (PKC-δ; PKC-δ-GST from a different vendor (Sinobiological), HotNM 2.5, HotKdNM 2.94) | Ki (PKC-δ; PKC-δ-GST from a different vendor (Sinobiological), HotNM 2.5, HotKdNM 2.94, read-out: Ki (best-fit value), PKC-δ) | Ki (PKC-δ; [1]) | PKC-β selectivity (PKC-β-I) | Ki (PKC-β-I; [2]) | PKC binding affinity and selectivity in words (PKC-β-I) | Ki (PKC-β-I; [3]) | logKi (best-fit value), PKC-β-I (PKC-β-I; HotNM 2.5, HotKdNM 0.37) | Ki (PKC-δ; [4]) | logKi (best-fit value), PKC-δ (PKC-δ; [5]) | selectivity for PKC-β over PKC-δ (PKC-β-I) | preference for binding PKC-β over PKC-δ (PKC-β-I; Discussion) | decrease in PKC binding affinity / potency compared to EBC-46 (PKC-β-I) | weaker binding affinity for PKC-δ than EBC-46 (PKC-δ) | logKi (best-fit value), PKC-δ (PKC-δ; HotNM 5, HotKdNM 0.72) | Ki (PKC-δ; HotNM 5, HotKdNM 0.72, read-out: Ki (best-fit value), PKC-δ)
C/C=C(\C)C(=O)O[C@@H]1[C@@H](C)[C@@]2(O)[C@@H](C=C(CO)C[C@]3(O)C(=O)C(C)=C[C@@H]23)[C@@H]2C(C)(C)[C@]12OC(=O)[C@@H](C)CC [SUW402] | -0.3561 | 0.44 nM | 0.44 nM | 3.7 | 0.118 nM | remarkable affinities in the picomolar range | 0.12 nM | -0.9263 | – | – | – | – | – | – | – | –
C/C=C(\C)C(=O)O[C@@H]1[C@@H](C)[C@@]2(O)[C@H]([C@@H]3C(C)(C)[C@]13OC(=O)[C@@H](C)CC)[C@@H]1O[C@]1(CO)[C@@H](O)[C@]1(O)C(=O)C(C)=C[C@H]12 [EBC-46, Tigilanol tiglate] | – | – | 3.2 nM | 2.3 | 1.38 nM | – | 1.4 nM | 0.1397 | 3.24 nM | 0.5102 | twofold | 2.3 × | – | – | – | –
C/C=C(\C)C(=O)O[C@@H]1[C@@H](C)[C@@]2(O)[C@H]([C@@H]3C(C)(C)[C@]13OC(=O)[C@H](C)CC)[C@@H]1O[C@]1(CO)[C@@H](O)[C@]1(O)C(=O)C(C)=C[C@H]12 [SUW407] | – | – | 3.7 nM | 1.6 | 2.31 nM | – | 2.3 nM | 0.3637 | 3.73 nM | 0.5722 | – | – | – | – | – | –
CC=C(C)C(=O)OC1C(C)C2(O)C(C3OC3(CO)CC3(O)C(=O)C(C)=CC32)C2C(C)(C)C12OC(=O)C(C)CC (stereo not drawn) [SUW403] | – | – | 21 nM | 2.7 | 7.9 nM | – | 7.9 nM | 0.8975 | 21.4 nM | 1.330 | – | – | approximately fivefold | – | – | –
CC[C@H](C)C(=O)O[C@@]12[C@H](OC(C)(C)C)[C@@H](C)[C@@]3(O)[C@H]([C@@H]1C2(C)C)[C@@H]1O[C@]1(CO)[C@@H](O)[C@]1(O)C(=O)C(C)=C[C@H]13 [SUW430] | – | – | 60 nM | – | 1.47 nM | – | 1.5 nM | 0.1684 | 59.7 nM | 1.776 | 40 fold | – | – | ~ 20 × | – | –
C/C=C(\C)C(=O)O[C@@H]1[C@@H](C)[C@]2(O)[C@@H]3C=C(C)[C@H](OC(=O)c4ccccc4)[C@@]3(O)[C@H](O)C(CO)=C[C@H]2[C@@H]2C(C)(C)[C@]12OC(=O)[C@@H](C)CC [SUW422] | – | – | – | 2.1 | 1.49 nM | nearly identical binding potency and selectivity to EBC-46 | 1.5 nM | 0.1731 | 3.04 nM | 0.4832 | – | – | – | – | – | –
C/C=C(\C)C(=O)O[C@@H]1[C@@H](C)[C@@]2(O)[C@H]([C@@H]3C(C)(C)[C@]13OC(=O)C1CCC1)[C@@H]1O[C@]1(CO)[C@@H](O)[C@]1(O)C(=O)C(C)=C[C@H]12 [SUW406] | – | – | 7.5 nM | 3.8 | 1.98 nM | – | 2 nM | 0.2968 | 7.5 nM | 0.8752 | fourfold | – | – | – | – | –
CC=C(C)C(=O)OC1C(C)C2(O)C(C3OC3(COC)C(O)C3(O)C(=O)C(C)=CC32)C2C(C)(C)C12OC(=O)C(C)CC (stereo not drawn) [SUW426] | – | – | 700 nM | 1.8 | 396 nM | – | 400 nM | 2.598 | – | – | – | – | approximately 250 fold | – | 2.846 | 702 nM
CC[C@H](C)C(=O)O[C@@]12[C@H](OC(=O)C3(C)CC3)[C@@H](C)[C@@]3(O)[C@H]([C@@H]1C2(C)C)[C@@H]1O[C@]1(CO)[C@@H](O)[C@]1(O)C(=O)C(C)=C[C@H]13 [SUW413] | – | – | 9.7 nM | 3.9 | 2.45 nM | very similar binding affinity to both PKC-β and PKC-δ compared to SUW406 | 2.5 nM | 0.3892 | 9.66 nM | 0.9851 | – | – | – | – | – | –
C/C=C(\C)C(=O)O[C@@H]1[C@@H](C)[C@@]2(O)[C@H]([C@@H]3C(C)(C)[C@]13OC(=O)c1ccccc1)[C@@H]1O[C@]1(CO)[C@@H](O)[C@]1(O)C(=O)C(C)=C[C@H]12 [SUW428] | – | – | 64 nM | 12.5 | 5.12 nM | approximately three times lower affinity for PKC-β compared to EBC-46 | 5.1 nM | 0.7091 | 64.2 nM | 1.808 | > 12 fold | – | – | ~ 20 × | – | –
